Source: patent US6770279B1, “TNFα antagonists and cyclosporin in therapy of rheumatoid arthritis” (The Kennedy Institute of Rheumatology, priority 1992, dated 2004)

Assays:
[1] = system: TNF expression in the joints; assay: Immunohistochemical studies of TNF expression in joints; type: in vivo, mouse; details: preliminary immunohistochemical studies; mice with collagen-induced arthritis
From the text: These findings indicate that rolipram is effective in established collagen-induced arthritis and may therefore be useful in the treatment of RA.

[2] = system: collagen type II induced arthritis in the DBA/1 mouse; assay: Collagen type II induced arthritis: clinical score; type: in vivo; details: Example 7B
Description: (§1) Male DBA/1 mice were immunized intradermally with 100 μg of bovine type II collagen emulsified in complete Freund's adjuvant (Difco Laboratories, East Molsey, UK). The mean day of onset of arthritis was approximately one month after immunization. […] Arthritis was monitored for paw-swelling (measured with calipers) for 10 days, after which the mice were sacrificed and joints were processed for histology.
Clinical Score was assessed on the following scale: 0=normal; 1=slight swelling and/or erythema; 2=pronounced edematous swelling; and 3=joint rigidity. […]
as §1, with “UK).” for “UK). The mean day of onset of arthritis was approximately one month after immunization.”, “paw swelling” for “paw-swelling”
Clinical score was assessed on the following scale: 0=normal; 1=slight swelling and/or erythema; 2=pronounced edematous swelling, and 3=joint rigidity. […]
as §1, with “UK).” for “UK). The mean day of onset of arthritis was approximately one month after immunization.”, “paw swelling” for “paw-swelling”, “histology. […]” for “histology.”

[3] = system: collagen type II induced arthritis in the DBA/1 mouse; assay: Collagen type II induced arthritis: limb involvement (number of arthritic limbs); type: in vivo; details: Example 2B; anti-TNF mAb 300 μg; methylprednisolone acetate 2 mg/kg
Description: Male DBA/1 mice were immunized intradermally at 8-12 weeks of age with 100 μg type II collagen emulsified in Freund's complete adjuvant (Difco Laboratories, East Molsey, UK). Day one of arthritis was considered to be the day that erythema and/or swelling was first observed in one or more limbs. Arthritis became clinically evident around 30 days after immunization with type II collagen. For each mouse, treatment was started on the first day that arthritis was observed and continued over a 10 day period, after which the mice were sacrificed and joints were processed for histology. Monoclonal antibody (mAb) treatment was administered on days 1, 4, and 7. For anti-TNF antibody, TN3-19.12, a neutralizing hamster IgG1 anti-TNFα/β monoclonal antibody (mAb), was used (Sheehan, K. C. et al., J. Immunology 142:3884-3893 (1989)). The isotype control was L2. The anti-TNF antibody and the isotype control were provided by R. Schreiber, Washington University Medical School (St. Louis, Mo., USA), in conjunction with Celltech (Slough, UK). The cell-depleting anti-CD4 monoclonal antibody (rat IgG2b) consisted of a 1:1 mixture of YTS 191.1.2 and YTA 3.1.2, provided by H. Waldmann (University of Cambridge, UK) (Galfre, G. et al., Nature 277: 131-133 (1979); Cobbold, S. P. et al., Nature 312: 548-551 (1984); Qin, S. et al., European J. Immunology 17:1159-1165 (1987)).
In collagen-induced arthritis, as in RA, it is usual for additional limbs to become involved after the initial appearance of clinical disease and new limb involvement is an important indicator of the progression of the disease. […]
Male DBA/1 mice were immunized intradermally with 100 μg of bovine type II collagen emulsified in complete Freund's adjuvant (Difco Laboratories, East Molsey, UK). […] Arthritis was monitored for clinical score and paw swelling (measured with calipers) for 10 days, after which the mice were sacrificed and joints were processed for histology. […]

Row | SMILES | TNF expression in the joints [1] | mean clinical score on day 10 (±SE) ([2]; rolipram 3 mg/kg twice daily, anti-TNF mAb 300 μg days 1, 4, 7, maximum score 12) | severity of arthritis (clinical score) ([2]; rolipram 3, 5 or 10 mg/kg i.p. twice daily, vs Cremophor EL) | Increase (%) in limbs affected [3] [%] | Limbs Affected (mean ± SEM) Day 1 [3] | Limbs Affected (mean ± SEM) Day 10 [3]
1 | COc1ccc(C2CNC(=O)C2)cc1OC1CCCC1 (stereo not drawn) [rolipram] | down-regulation of TNF expression in the joints | 1.0±0.3 | significant reduction in the severity of arthritis |  |  | 
2 | CC(=O)OCC(=O)[C@@]1(O)CC[C@H]2[C@@H]3C[C@H](C)C4=CC(=O)C=C[C@]4(C)[C@H]3[C@@H](O)C[C@@]21C [Methylprednisolone acetate, methylprednisolone acetate] |  |  |  | 33 | 1.00 ± 0.00 | 1.50 ± 0.22
